Experimental data reported in ChEMBL document CHEMBL3244190, “2,3-Dihydroxy-9-amino-9,10-dihydrophenanthrene, a rigid congener of dopamine and isoapomorphine” (J Med Chem, 1978).
Calls of active or inactive are those of the source. The calls are words filed in the database; no cut-off is given here.

Tests used:
[1] = biological target: T1, Adenylate cyclase (Rattus norvegicus) (UniProt D4A3N4+P26770+Q04400+P26769+Q03343+P40146+Q8CFM9+P21932); test: Activation of rat striatal homogenate adenylate cyclase assessed as cAMP level at 100 uM after 2.5 mins relative to control
[2] = biological target: T1, Adenylate cyclase (Rattus norvegicus); test: Inhibition of dopamine-induced adenylate cyclase activation in rat striatal homogenate assessed as enzyme activity at 100 uM after 2.5 mins relative to control; design: scale not given: the % may be the effect or the level left
[3] = biological target: T1, Adenylate cyclase (Rattus norvegicus); test: Activation of rat striatal homogenate adenylate cyclase assessed as cAMP level at 10 uM after 2.5 mins relative to control
[4] = test system: Canis familiaris; test: Induction of vasodilation in intraarterially dosed anesthetized Mongrel dog at 3 umol; format: functional, organism-based; conditions: Canis lupus familiaris

Row | Structure (SMILES) | Activity [1] [%] | Activity [2] [%] | Activity [3] [%] | Activity [4]
1 | NCCc1ccc(O)c(O)c1 | 150 | – | – | –
2 | NC1Cc2cc(O)c(O)cc2-c2ccccc21 (stereo not given) | 92 | 149 | 100 | inactive
